Measurements: patent US20240360151A1 (SANOFI, priority 2023, published 2024)

Assays:
NLRP3 inflammasome = molecular target: T1, NLRP3 inflammasome (Homo sapiens, UniProt Q96P20); experiment: IL-1β secretion assay (NLRP3 IC50) in LPS-primed, nigericin-activated THP-1 cells, HTRF; format: cell-based; settings: monocytic THP-1 cells; LPS 10 ng/mL 3 h priming, then compound + nigericin 10 μM 2 h; relative IC50, 10 concentrations, geometric mean
T1 construct: endogenous in cells; host or cells: THP-1 monocytic cells
T1 sequence (Q96P20 whole entry): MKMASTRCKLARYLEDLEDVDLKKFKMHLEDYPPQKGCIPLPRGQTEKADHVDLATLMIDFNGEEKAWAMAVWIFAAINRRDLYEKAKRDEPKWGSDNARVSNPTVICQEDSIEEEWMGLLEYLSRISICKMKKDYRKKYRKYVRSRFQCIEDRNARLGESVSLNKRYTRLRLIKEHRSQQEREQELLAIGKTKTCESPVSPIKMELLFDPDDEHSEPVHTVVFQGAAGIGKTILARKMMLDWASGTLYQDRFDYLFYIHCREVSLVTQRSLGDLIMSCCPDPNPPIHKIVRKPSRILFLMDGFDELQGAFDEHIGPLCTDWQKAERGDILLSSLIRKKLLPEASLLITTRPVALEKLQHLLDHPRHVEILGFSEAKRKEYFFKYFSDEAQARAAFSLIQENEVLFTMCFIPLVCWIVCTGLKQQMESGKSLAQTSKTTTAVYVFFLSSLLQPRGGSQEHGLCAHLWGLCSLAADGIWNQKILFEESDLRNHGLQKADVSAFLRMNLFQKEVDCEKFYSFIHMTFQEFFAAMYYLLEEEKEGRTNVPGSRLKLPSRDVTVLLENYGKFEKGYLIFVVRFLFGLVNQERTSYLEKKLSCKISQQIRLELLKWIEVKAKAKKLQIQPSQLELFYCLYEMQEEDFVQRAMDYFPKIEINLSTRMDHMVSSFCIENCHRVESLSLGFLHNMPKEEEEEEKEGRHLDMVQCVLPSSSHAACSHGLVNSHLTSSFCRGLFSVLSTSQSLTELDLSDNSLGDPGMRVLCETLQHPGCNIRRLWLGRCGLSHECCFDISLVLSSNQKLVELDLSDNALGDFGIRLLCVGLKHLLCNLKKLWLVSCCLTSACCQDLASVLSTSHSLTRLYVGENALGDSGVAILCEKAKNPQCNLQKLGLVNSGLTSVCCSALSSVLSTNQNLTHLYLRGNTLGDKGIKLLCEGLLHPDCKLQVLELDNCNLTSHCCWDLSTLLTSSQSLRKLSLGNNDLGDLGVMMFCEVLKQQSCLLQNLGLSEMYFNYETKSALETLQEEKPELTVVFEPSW
How it was run: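 IL-1β in supernatant read by HTRF after 2 h co-incubation of compound (0.1% DMSO, 10 concentrations, 1:3 series) with nigericin at 10 μM final, following 3 h LPS (10 ng/mL) priming of THP-1 monocytes at 37° C. Inhibition normalised to unactivated and no-compound controls; geometric-mean relative IC50 from 4-parameter logistic model.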

[1] = tested on: NF-kB pathway (TNF-α secretion by THP-1 cells); experiment: TNF-α secretion assay in LPS-stimulated THP-1 cells, Lumit immunoassay; format: cell-based, human; settings: Homo sapiens, THP-1, 3 h, monocytic THP-1 cells, LPS 10 ng/mL, relative IC50, 10 concentrations, geometric mean
How it was run: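 TNF-α release was quantified directly in the cell plate by Lumit immunoassay after a 3-h, 10 ng/mL LPS trigger of compound-treated THP-1 cells (RPMI, 5% FBS). Percent inhibition versus no-compound and unstimulated controls fed a 4-parameter logistic fit over 10 concentrations, giving geometric-mean relative IC50.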

Compound | IC50 (NLRP3 inflammasome) [nM] | IC50 [1] [nM]
Cc1cc(Cl)cc(O)c1-c1ccc(N2CCOc3cc(O)ccc32)nn1 [Example 193, 4-[6-(4-chloro-2-hydroxy-6-methyl-phenyl)pyridazin-3-yl]-2,3-dihydro-1,4-benzoxazin-7-ol] | 534 | 9830
Cc1cc(C(F)(F)F)cc(O)c1-c1cc(C(F)F)c(N2CCO[C@H](CO)C2)nn1 [Example 194, 2-[5-(difluoromethyl)-6-[(2S)-2-(hydroxymethyl)morpholin-4-yl]pyridazin-3-yl]-3-methyl-5-(trifluoromethyl)phenol] | 4 | > 10000
Cc1cc(C)c(-c2ccc(N3CCNC4(CCOC4)C3)nn2)c(O)c1 (centres unmarked) [Example 196, 3,5-dimethyl-2-[6-(2-oxa-6,9-diazaspiro[4.5]decan-9-yl)pyridazin-3-yl]phenol] | 452 | > 10000
Cc1cc(C)c(-c2ccc(N3C[C@@H](CO)O[C@H](CO)C3)nn2)c(O)c1 [Example 198, 2-[6-[(2S,6S)-2,6-bis(hydroxymethyl)morpholin-4-yl]pyridazin-3-yl]-3,5-dimethyl-phenol] | 16 | > 10000
Cc1cc(C(F)(F)F)cc(O)c1-c1ccc(N2C[C@@H](CO)O[C@H](CO)C2)nn1 [Example 199, 2-[6-[(2S,6S)-2,6-bis(hydroxymethyl)morpholin-4-yl]pyridazin-3-yl]-3-methyl-5-(trifluoromethyl)phenol] | 4 | > 10000
Cc1cc(C(F)(F)F)cc(O)c1-c1ccc(N2C[C@H](CO)O[C@@H](CO)C2)nn1 [Example 200, 2-[6-[(2R,6R)-2,6-bis(hydroxymethyl)morpholin-4-yl]pyridazin-3-yl]-3-methyl-5-(trifluoromethyl)phenol] | 23 | > 10000
Cc1cc(C)c(-c2ccc(N3C[C@H](CO)O[C@@H](CO)C3)nn2)c(O)c1 [Example 201, 2-[6-[(2R,6R)-2,6-bis(hydroxymethyl)morpholin-4-yl]pyridazin-3-yl]-3,5-dimethyl-phenol] | 76 | > 10000
Oc1cc(Cl)cc(Cl)c1-c1ccc(N2CCSCC2)nn1 [Example 203, 3,5-dichloro-2-(6-thiomorpholinopyridazin-3-yl)phenol] | 332 | 9990
Cc1cc(C2CC2)cc(O)c1-c1ccc(N2CCO[C@H](CO)C2)nn1 [Example 204, 5-cyclopropyl-2-[6-[(2S)-2-(hydroxymethyl)morpholin-4-yl]pyridazin-3-yl]-3-methyl-phenol] | 54 | > 10000
Cc1cc(C)c(-c2ccc(N3C[C@H]4COC[C@H]4C3)nn2)c(O)c1 [Example 206, 2-[6-[(3aS,6aR)-1,3,3a,4,6,6a-hexahydrofuro[3,4-c]pyrrol-5-yl]pyridazin-3-yl]-3,5-dimethyl-phenol] | 325 | > 10000
CC(=O)NC[C@@H]1CCCN(c2ccc(-c3c(C)cc(Cl)cc3O)nn2)C1 [Example 211, N-[[(3S)-1-[6-(4-chloro-2-hydroxy-6-methyl-phenyl)pyridazin-3-yl]-3-piperidyl]methyl]acetamide] | 34 | > 10000
CC(=O)NC[C@H]1CCCN(c2ccc(-c3c(C)cc(Cl)cc3O)nn2)C1 [Example 212, N-[[(3R)-1-[6-(4-chloro-2-hydroxy-6-methyl-phenyl)pyridazin-3-yl]-3-piperidyl]methyl]acetamide] | 39 | > 10000
CC(=O)NC[C@@H]1CN(c2ccc(-c3c(C)cc(C(F)(F)F)cc3O)nn2)CCO1 [Example 216, N-[[(2R)-4-[6-[2-hydroxy-6-methyl-4-(trifluoromethyl)phenyl]pyridazin-3-yl]morpholin-2-yl]methyl]acetamide] | 128 | > 10000
Cc1cc(C)c(-c2ccc(N3CCCc4ccc(O)cc43)nn2)c(O)c1 [Example 217, 1-[6-(2-hydroxy-4,6-dimethyl-phenyl)pyridazin-3-yl]-3,4-dihydro-2H-quinolin-7-ol] | 127 | > 10000
Cc1cc(C)c(-c2ccc(N3CCO[C@H](CF)C3)nn2)c(O)c1 [Example 219, 2-[6-[(2S)-2-(fluoromethyl)morpholin-4-yl]pyridazin-3-yl]-3,5-dimethyl-phenol] | 103 | > 10000
Cc1cc(C)c(-c2ccc(N3CCO[C@@H](CF)C3)nn2)c(O)c1 [Example 220, 2-[6-[(2R)-2-(fluoromethyl)morpholin-4-yl]pyridazin-3-yl]-3,5-dimethyl-phenol] | 108 | > 10000
Cc1cc(C)c(-c2ccc(N3CCCc4cc(O)ccc43)nn2)c(O)c1 [Example 230, 1-[6-(2-hydroxy-4,6-dimethyl-phenyl)pyridazin-3-yl]-3,4-dihydro-2H-quinolin-6-ol] | 556 | 9140

Compound | IC50 (NLRP3 inflammasome) [nM] | IC50 [1] [nM]
Cc1cc(C)c(-c2ccc(N3CCCc4cccc(O)c43)nn2)c(O)c1 [Example 231, 1-[6-(2-hydroxy-4,6-dimethyl-phenyl)pyridazin-3-yl]-3,4-dihydro-2H-quinolin-8-ol] | 219 | > 10000
Cc1cc(C)c(-c2ccc(N3CCCc4c(O)cccc43)nn2)c(O)c1 [Example 232, 1-[6-(2-hydroxy-4,6-dimethyl-phenyl)pyridazin-3-yl]-3,4-dihydro-2H-quinolin-5-ol] | 502 | 7630
Cc1cc(C)c(-c2ccc(N3CC(CO)CCC3=O)nn2)c(O)c1 (centres unmarked) [Example 235, 1-[6-(2-hydroxy-4,6-dimethyl-phenyl)pyridazin-3-yl]-5-(hydroxymethyl) piperidin-2-one] | 70 | 7130
Cc1cc(C)c(-c2ccc(N3CCc4cc(O)ccc43)nn2)c(O)c1 [Example 236, 1-[6-(2-hydroxy-4,6-dimethyl-phenyl)pyridazin-3-yl]indolin-5-ol] | 551 | 9650
O=C1NCCCN1c1ccc(-c2c(O)cc(Cl)cc2Cl)nn1 [Example 239, 1-[6-(2,4-dichloro-6-hydroxy-phenyl)pyridazin-3-yl]hexahydropyrimidin-2-one] | 200 | > 10000
Cc1cc(C)c(-c2ccc(N3CCc4c(O)cccc43)nn2)c(O)c1 [Example 240, 1-[6-(2-hydroxy-4,6-dimethyl-phenyl)pyridazin-3-yl]indolin-4-ol] | 421 | > 10000
Cc1cc(C)c(-c2ccc(N3CCc4c(CO)cccc43)nn2)c(O)c1 [Example 241, 2-[6-[4-(hydroxymethyl)indolin-1-yl]pyridazin-3-yl]-3,5-dimethyl-phenol] | 250 | > 10000
CCc1cc(C)c(-c2ccc(N3CCO[C@H](CO)C3)nn2)c(O)c1 [Example 245, 5-ethyl-2-[6-[(2S)-2-(hydroxymethyl)morpholin-4-yl]pyridazin-3-yl]-3-methylphenol] | 64 | > 10000
CCc1cc(C)cc(O)c1-c1ccc(N2CCO[C@H](CO)C2)nn1 [Example 246, 3-ethyl-2-[6-[(2S)-2-(hydroxymethyl)morpholin-4-yl]pyridazin-3-yl]-5-methylphenol] | 12 | > 10000
OC[C@@H]1CN(c2cc(C(F)F)c(-c3ccc(C(F)(F)F)cc3O)nn2)CCO1 [Example 247, 2-[4-(difluoromethyl)-6-[(2S)-2-(hydroxymethyl)morpholin-4-yl]pyridazin-3-yl]-5-(trifluoromethyl)phenol] | 168 | > 10000
Cc1cc(C(F)(F)F)cc(O)c1-c1nnc(N2CCO[C@H](CO)C2)cc1C(F)F [Example 248, 2-[4-(difluoromethyl)-6-[(2S)-2-(hydroxymethyl)morpholin-4-yl]pyridazin-3-yl]-3-methyl-5-(trifluoromethyl)phenol] | 81 | > 10000
Cc1cc(Cl)cc(O)c1-c1nnc(N2CCO[C@H](CO)C2)cc1C(F)F [Example 249, 5-chloro-2-[4-(difluoromethyl)-6-[(2S)-2-(hydroxymethyl)morpholin-4-yl]pyridazin-3-yl]-3-methyl-phenol] | 151 | > 10000
Cc1cc(C(F)(F)F)cc(O)c1-c1ccc(N2C[C@@H](N)CC2=O)nn1 [Example 250, (4S)-4-amino-1-[6-[2-hydroxy-6-methyl-4-(trifluoromethyl)phenyl]pyridazin-3-yl]pyrrolidin-2-one] | 249 | > 10000
Cc1cc(C)c(-c2ccc(N3CCc4ccc(O)cc43)nn2)c(O)c1 [Example 254, 1-[6-(2-hydroxy-4,6-dimethyl-phenyl)pyridazin-3-yl]indolin-6-ol] | 460 | 9970
Cc1cc(C(F)(F)F)cc(O)c1-c1ccc(N2CCO[C@H](C)C2)nn1 [Example 258, 3-methyl-2-[6-[(2R)-2-methylmorpholin-4-yl]pyridazin-3-yl]-5-(trifluoromethyl)phenol] | 30 | > 10000
Cc1cc(C(F)(F)F)cc(O)c1-c1ccc(N2CCO[C@@H](C)C2)nn1 [Example 259, 3-methyl-2-[6-[(2S)-2-methylmorpholin-4-yl]pyridazin-3-yl]-5-(trifluoromethyl)phenol] | 67 | > 10000
Cc1cc(C(F)(F)F)cc(O)c1-c1ccc(N2CCO[C@@H](CO)C2)nn1 [Example 266, 2-[6-[(2R)-2-(hydroxymethyl)morpholin-4-yl]pyridazin-3-yl]-3-methyl-5-(trifluoromethyl)phenol] | 73 | > 10000
